Reference: publication PMC4424274, “Evaluation of [^11C]CB184 for imaging and quantification of TSPO overexpression in a rat model of herpes encephalitis” (European Journal of Nuclear Medicine and Molecular Imaging, 2015)
Like-named read-outs stand apart in the source and are kept apart here.

Tests used:
[1] = Plasma clearance and plasma metabolite analysis; format: in vivo, rat; details: Wistar, rat, in vivo, iv, metabolite-corrected plasma, intravenous injection, rats
Description: PET scans with arterial blood sampling were performed in a different set of rats to generate input for pharmacokinetic modelling. For the arterial blood sampling a cannula was inserted into the femoral artery after induction of anaesthesia. The femoral vein was additionally cannulated for PET tracer injection. After cannulation, the rats were positioned in the camera and a transmission scan was acquired using a ^57Co point source. […] A 0.1 ml blood sample of was taken at 0, 5, 10, 15, 20, 30, 45, 60, 75, 90, 120, 180, 300, 450, 600, 900, 1,800 and 3,600 s after injection. A larger blood sample of 0.5 ml was taken at three time points (5, 15, 30 and/or 60 min) for metabolite analysis. After collection of each blood sample, heparinized saline was injected to prevent large changes in blood pressure. A 25 μl aliquot of whole blood was extracted from each sample for radioactivity measurement. The remainder of each sample was centrifuged at 13,000 rpm (15,996 g) for 8 min, and 25 μl plasma was taken for radioactivity measurement. The radioactivity in blood and plasma was measured with a gamma counter.
Radioactive metabolites in plasma were measured using the extra blood samples taken at three time points during each scan (5, 15, 30 and/or 60 min). After centrifugation and collection of the plasma sample for radioactive measurement, as described above, the remaining plasma was diluted with acetonitrile (1.5 times the amount of plasma) and vortex-mixed. The plasma suspension was centrifuged at 5,300 rpm (3,030 g) for 3 min, and divided into supernatant and pellet. […] Fractions of 30 s were collected and measured in the gamma counter.
The percentage of metabolites in plasma was calculated by fitting an exponential function to the values obtained from the HPLC analysis. The plasma values obtained from the blood samples during the PET scan were then corrected for the presence of these metabolites, and used together with the whole-blood curve for further analysis. Metabolite corrected plasma TACs were fitted for each individual rat using iterative nonlinear least-squares fitting to the biexponential equation: SUVt = Ae^−αt + Be^−βt, where SUVt is the plasma SUV at time t, α and β are the apparent distribution and elimination rate constants (s^−1), respectively, and A and B are the corresponding zero-time intercepts. The weighting factors were the reciprocals of the plasma SUV squared. Distribution and elimination half-lives (seconds) were calculated as the natural logarithm of 2 divided by α and β, respectively.

[2] = Radioactive metabolites of [^11C]CB184 in brain; format: in vivo, rat; details: 30 min after injection
Description: To determine if radioactive metabolites of [^11C]CB184 entered the brain, the brain of one control rat and one HSE rat were isolated 30 min after injection and homogenized with a solution of ice-cold acetonitrile (3 ml). The homogenate was centrifuged at 6,000 rpm (3,461 g) for 10 min. The supernatant was then collected and processed by HPLC, as described above.

TSPO [3] = target: TSPO; set-up: method as in PMID 25616581; details: cited from earlier work
TSPO [4] = test system: TSPO; set-up: method as in PMID 25616581; details: 6-hydroxydopamine-injured striatum in rats; cited from earlier work
[5] = lipophilicity; cited from earlier work
TSPO [6] = details: normal mice; cited from earlier work

With `CCCN(CCC)C(=O)Cc1c(-c2ccc(O[11CH3])cc2)nc2c(Cl)cc(Cl)cn12` [[^11C]CB184] the half-life ([1]; read-out: Distribution half-life in plasma (converted)) was 0.283 min, the half-life ([1]; read-out: Elimination half-life in plasma) was 44 ± 26 min and the “Percentage of intact tracer present in the brain” value [2] was “approximately 99%”. The Ki (TSPO [3]; read-out: K i (TSPO affinity)) was 0.54 nM, the “TSPO affinity relative to (R)-[^11C]PK11195” value (TSPO [3]; times higher affinity, ratio of K i values) was 7.9 times and the “Inflammation-induced binding as compared with (R)-[^11C]PK11195” value (TSPO [4]) was “comparable”. The logP [5] was 2.06 and the “Uptake in TSPO-rich regions (cerebellum and olfactory bulb) as compared with (R)-[^11C]PK11195” value (TSPO [6]) was “higher uptake”.
